This passage reports ΔTm, binding and Kd results from publication PMC8245323 (2021).

Assay [1] relates to G4 Myc (FRET) (DNA, G4) TGAGGGTGGGTAGGGTGGGTAA
As to the kind of experiment: FRET melting. Conditions: 60 mM potassium cacodylate; pH 7.4; 1 µM compound, 200 nM DNA.

Assay [2] concerns G4 Telo (FRET) (DNA, G4) GGGTTAGGGTTAGGGTTAGGG
Put plainly: FRET melting. Conditions: 60 mM potassium cacodylate; pH 7.4; 1 µM compound, 200 nM DNA.

The subject of assay [3] is G4 Myc (fluorescence quench) (DNA, G4) TGGGGAGGGTGGGGAGGGTGGGGAAGG
Put plainly: fluorescence quench binding assay. The settings on record: 150 mM KCl; for Kd: 50 mM Tris HCl pH 7.2, 0.5% CHAPS, 0.05% Triton X-100, apparent, 9 nM DNA.

Assay [4] relates to G4 Kit1 (fluorescence quench) (DNA, G4) AGGGAGGGCGCTGGGAGGAGGG
Put plainly: fluorescence quench binding assay. Conditions: 150 mM KCl; for Kd: 50 mM Tris HCl pH 7.2, 0.5% CHAPS, 0.05% Triton X-100, apparent, 9 nM DNA.

Assay [5] deals with G4 Telo (fluorescence quench) (DNA, G4) AGGGTTAGGGTTAGGGTTAGGGT
Put plainly: fluorescence quench binding assay. Conditions: 150 mM KCl; for Kd: 50 mM Tris HCl pH 7.2, 0.5% CHAPS, 0.05% Triton X-100, apparent, 9 nM DNA.

Assay [6] concerns G4 Kit1 (FRET) (DNA, G4) GGGAGGGCGCTGGGAGGAGGG
As to the kind of experiment: FRET melting. The settings on record: 60 mM potassium cacodylate; pH 7.4; increasing compound concentration up to 3 µM, 200 nM DNA.

Assay [7] relates to dsDNA (FRET) (DNA, hairpin, hexaethylene glycol (HEG, [(-CH2CH2O-)6]) linker between nucleotides 10 and 11) TATAGCTATATATAGCTATA
Put plainly: FRET melting. The settings on record: 60 mM potassium cacodylate; pH 7.4; increasing compound concentration up to 3 µM, 200 nM DNA.

For assay [8], the system named is dsDNA (fluorescence quench) (DNA, duplex) CAATCGGATCGAATTCGATCCGATTG
Put plainly: fluorescence quench binding assay. Conditions: 150 mM KCl; 50 mM Tris HCl pH 7.2, 0.5% CHAPS, 0.05% Triton X-100; apparent; 9 nM DNA.

[9] abbreviates: 50 mM Tris HCl pH 7.2, CHAPS, Triton X-100, highest concentration tested 5 µM.

By ΔTm is commonly meant the change in melting temperature against a reference sample. For `C#CCCC1(CCC(=O)NC)N=N1`, the shift in melting temperature (ΔTm) in assay [1] and in assay [2] was 0 °C in each case. Also, the binding entry in assay [3] (setting [9]), in assay [4] (setting [9]), in assay [5] (setting [9]) and in assay [6] was “no” each time.
Consider `C#CCCC1(CCC(=O)NCCOCCOCCNCCOc2cc(C(=O)Nc3cc(OCCN)c4ccccc4n3)nc(C(=O)Nc3cc(OCCN)c4ccccc4n3)c2)N=N1`, for which the results for the ΔTm in assay [1] and in assay [2] were 13 °C and 27 °C, respectively. In addition, the values for the binding result in assay [7] and in assay [6] were “no” and “yes”, respectively. For the same compound, the Kd in assay [3] is 439 ± 36 nM; in assay [4] it was 669 ± 49 nM; in assay [8] it was > 5,000 nM; in assay [5], 459 ± 25 nM.
For `C#CCCC1(CCNCCOc2cc(C(=O)Nc3cc(OCCN)c4ccccc4n3)nc(C(=O)Nc3cc(OCCN)c4ccccc4n3)c2)N=N1`, the ΔTm in assay [1] was 14 °C; in assay [2], 25 °C. Also, the binding result in assay [7] is listed as “no”; in assay [6], “yes”. Also, the Kd in assay [3] was 197 ± 10 nM; in assay [4], 323 ± 13 nM; in assay [8], > 5,000 nM; in assay [5], 306 ± 6 nM.
On to `NCCOc1cc(C(=O)Nc2cc(OCCN)c3ccccc3n2)nc(C(=O)Nc2cc(OCCN)c3ccccc3n2)c1`, for which the Kd in assay [3] is given as 168 ± 8 nM.
